The source of these data is patent US10676486B2, “Macrocyclic RIP2 kinase inhibitors” (ONCODESIGN S.A., priority 2014, dated 2020).

One data set deals with RIP2 recombinant protein (Homo sapiens, UniProt O43353). In words: Radiometric protein kinase assay (33PanQinase Activity Assay) for RIP2, peptide-based. Format: biochemical. Conditions: for remaining activity at 0.1 µM / remaining activity at 1 µM: 1 h; for remaining activity at 0.1 µM: compound at 0.1 μM; for remaining activity at 1 µM: compound at 1 μM; for IC50: ATP 3.0 μM, RIP2 15.7 nM, 30° C., 60 minutes. The procedure: The inhibition of RIP2 kinase was assessed using RIP2 recombinant protein in an in vitro peptide-based kinase assay.
A radiometric protein kinase assay (^33PanQinase® Activity Assay) is used for measuring the kinase activity. All assays are performed in 96-well FlashPlates™ from Perkin Elmer in a 50 μl reaction volume. The reaction cocktail is pipetted in 4 steps in the following order: • 10 μl of non-radioactive ATP solution (in H2O) • 25 μl of assay buffer/[γ-^33P]-ATP mixture • 5 μl of test sample in 10% DMSO • 10 μl of enzyme/substrate mixture
The assay for RIP2 contains 70 mM HEPES-NaOH pH 7.5, 3 mM MgCl2, 3 mM MnCl2, 3 μM Na-orthovanadate, 1.2 mM DTT, 50 μg/mI PEG20000, ATP (3.0 μM), [γ-^33P]-ATP (approx. 5×10^05 cpm per well), protein kinase RIP2 (15.7 nM) and substrate (RBER-Chktide), 2.0 μg/50 μl).
The reaction cocktails were incubated at 30° C. for 60 minutes. The reaction was stopped with 50 μl of 2% (v/v) H3PO4, plates were aspirated and washed two times with 200 μl 0.9% (w/v) NaCl. Incorporation of ^33Pi (counting of “cpm”) was determined with a microplate scintillation counter.
The compounds are dissolved to 10 mM in DMSO. Where needed, solutions are sonicated in a bath sonicator.
Table 4 provides the pIC50 values and % Remaining activity values at two concentrations (1 μM and 0.1 μM) of the compounds according to the invention, obtained using the above mentioned kinase assay.

The conditions of data set [1]: several clinical cases; The Oncologist (2013) 18: e3-e5; cited from earlier work.
For another data set, the target named is T1, RIP2 (Mus musculus, UniProt P58801).
T1 construct: host or cells: mouse (in vivo colitis models)
Conditions: mouse models of chronic inflammatory bowel diseases; J Biol Chem. (2005) 15, 14981-14988; cited from earlier work.

Sequence of RIP2 recombinant protein (O43353 whole entry): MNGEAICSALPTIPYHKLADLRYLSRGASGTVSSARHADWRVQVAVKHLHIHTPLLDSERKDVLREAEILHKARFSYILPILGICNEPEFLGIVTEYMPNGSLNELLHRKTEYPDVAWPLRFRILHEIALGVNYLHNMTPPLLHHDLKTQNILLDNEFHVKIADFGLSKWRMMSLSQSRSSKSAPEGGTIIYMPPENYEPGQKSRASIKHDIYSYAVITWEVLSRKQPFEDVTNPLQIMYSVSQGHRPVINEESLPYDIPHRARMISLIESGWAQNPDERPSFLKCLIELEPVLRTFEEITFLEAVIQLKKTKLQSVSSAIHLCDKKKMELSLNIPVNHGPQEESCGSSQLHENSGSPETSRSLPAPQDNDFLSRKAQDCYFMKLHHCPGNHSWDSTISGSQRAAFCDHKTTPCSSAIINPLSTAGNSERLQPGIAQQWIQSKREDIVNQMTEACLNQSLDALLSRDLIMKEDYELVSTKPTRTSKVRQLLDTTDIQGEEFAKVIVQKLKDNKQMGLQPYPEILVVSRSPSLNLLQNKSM
T1 sequence (P58801 whole entry): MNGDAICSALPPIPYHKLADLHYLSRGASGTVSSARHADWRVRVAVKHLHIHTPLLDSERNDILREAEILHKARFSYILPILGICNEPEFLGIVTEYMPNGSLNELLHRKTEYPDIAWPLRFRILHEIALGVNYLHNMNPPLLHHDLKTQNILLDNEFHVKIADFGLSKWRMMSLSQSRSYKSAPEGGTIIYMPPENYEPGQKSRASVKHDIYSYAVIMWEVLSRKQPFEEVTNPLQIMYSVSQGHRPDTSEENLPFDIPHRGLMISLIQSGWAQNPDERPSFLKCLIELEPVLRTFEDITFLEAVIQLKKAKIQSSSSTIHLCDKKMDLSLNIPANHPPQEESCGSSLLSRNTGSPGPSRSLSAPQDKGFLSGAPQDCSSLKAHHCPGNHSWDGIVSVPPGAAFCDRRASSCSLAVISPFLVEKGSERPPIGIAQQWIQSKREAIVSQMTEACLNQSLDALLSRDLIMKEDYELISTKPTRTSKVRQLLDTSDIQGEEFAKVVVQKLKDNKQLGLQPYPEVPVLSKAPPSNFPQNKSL

Broadly, the remaining activity is the activity still measured, relative to the control. One may read the IC50 as the concentration that inhibits the measured activity by half. One may read the melting point as the temperature of the solid-liquid transition. `c1cc2cc(c1)-c1cnn3ccc(nc13)NCC1CCCN1CCO2` (stereo not drawn) [Compound O1] showed a melting point of more than 300 °C. Further, at RIP2 recombinant protein, the remaining activity at 0.1 µM was less than 50%, the remaining activity at 1 µM was less than 50% and the IC50 is less than 100 nM.
Turning to `CN1CC2CCCN2CCOc2cccc(c2)-c2cnn3ccc1nc23` (stereo not drawn) [Compound O2], the melting point stood at 91.2 °C. Further, the IC50 at RIP2 recombinant protein is less than 100 nM.
Molecule `Clc1cc2cc(c1)-c1cnn3ccc(nc13)NC[C@H]1CCCN1CCCO2` [Compound O3] yielded a melting point of 186.4 °C. Besides, at RIP2 recombinant protein, the remaining activity at 0.1 µM was less than 50%, the remaining activity at 1 µM was less than 50% and the IC50 is less than 100 nM.
As to `Clc1cc2cc(c1)-c1cnn3ccc(nc13)NC[C@@H]1CCCN1CCO2` [Compound O4], the melting point was more than 300 °C. At RIP2 recombinant protein, the remaining activity at 0.1 µM was less than 50%, the remaining activity at 1 µM is less than 50% and the IC50 is less than 100 nM.
On to `Fc1cc2cc(c1)-c1cnn3ccc(nc13)NC[C@@H]1CCCN1CCO2` [Compound O5], for which the melting point turned out to be 241 °C. On RIP2 recombinant protein, the remaining activity at 0.1 µM was less than 50%, the remaining activity at 1 µM is less than 50% and the IC50 was less than 100 nM.
The molecule `Fc1cc2cc(c1)-c1cnn3ccc(nc13)NC[C@H]1CCCN1CCCO2` [Compound O6] registered a melting point of more than 300 °C. Besides, on RIP2 recombinant protein, the remaining activity at 0.1 µM is less than 50%, the remaining activity at 1 µM is less than 50% and the IC50 was less than 100 nM.
In turn, `Fc1cc2cc(c1)-c1cnn3ccc(nc13)NCC[C@H]1CCCN1CCO2` [Compound O7] displayed a melting point of more than 300 °C. Further, at RIP2 recombinant protein, the remaining activity at 0.1 µM is less than 50%, the remaining activity at 1 µM is less than 50% and the IC50 is less than 100 nM.
In turn, `c1cc2cc(c1)-c1cnn3ccc(nc13)NC[C@@H]1CCCN1CCO2` [Compound O8] had a melting point of more than 300 °C. Besides, on RIP2 recombinant protein, the remaining activity at 0.1 µM was less than 50%, the remaining activity at 1 µM is less than 50% and the IC50 was less than 100 nM.
On to `Clc1cc2cc(c1)-c1cnn3ccc(nc13)NC[C@@H]1CCCN1CCCO2` [Compound O9], for which the melting point is more than 300 °C. In addition, at RIP2 recombinant protein, the remaining activity at 0.1 µM is less than 50%, the remaining activity at 1 µM was less than 50% and the IC50 is less than 100 nM.
As to `CN1C[C@@H]2CCCN2CCOc2cccc(c2)-c2cnn3ccc1nc23` [Compound O10], the melting point worked out at 198.5 °C. On RIP2 recombinant protein, the remaining activity at 0.1 µM was less than 50%, the remaining activity at 1 µM was less than 50% and the IC50 was less than 100 nM.
With `Fc1cc2cc(c1)-c1cnn3ccc(nc13)NC[C@@H]1CCCN1CCCO2` [Compound O11], on RIP2 recombinant protein, the remaining activity at 0.1 µM is less than 50%, the remaining activity at 1 µM is less than 50% and the half-inhibitory concentration (IC50) was less than 100 nM.
Turning to `Fc1c(Cl)cc2cc1OCCN1CCC[C@H]1CNc1ccn3ncc-2c3n1` [Compound O12], on RIP2 recombinant protein, the remaining activity at 0.1 µM is less than 50%, the remaining activity at 1 µM is less than 50% and the IC50 is less than 100 nM.
For the molecule `Fc1cc2cc(c1)-c1cnn3ccc(nc13)NCC1CCCCN1CCO2` (stereo not drawn) [Compound O13], at RIP2 recombinant protein, the remaining activity at 0.1 µM was less than 50%, the remaining activity at 1 µM was less than 50% and the IC50 was less than 100 nM.
On to `Fc1cc2cc(c1)-c1cnn3ccc(nc13)NCC1CCCCN1CCCO2` (stereo not drawn) [Compound O14], for which the IC50 on RIP2 recombinant protein is less than 100 nM.
With `C#Cc1cccc(Nc2ncnc3cc(OCCOC)c(OCCOC)cc23)c1` [Erlotinib], the “clinical effect on psoriasis, arthritic symptoms or insulin-resistant type 2 diabetes” value in data set [1] is “efficient to clear psoriasis or reduce arthritic symptoms or insulin-resistant type 2 diabetes”.
`COc1cc2ncnc(Nc3ccc(F)c(Cl)c3)c2cc1OCCCN1CCOCC1` [Gefitinib]: the “clinical effect on psoriasis, arthritic symptoms or insulin-resistant type 2 diabetes” value in data set [1] is reported as “efficient to clear psoriasis or reduce arthritic symptoms or insulin-resistant type 2 diabetes”.
Take `C[S+]([O-])c1ccc(-c2nc(-c3ccncc3)c(-c3ccc(F)cc3)[nH]2)cc1` (stereo not drawn) [SB203580]: at RIP2, the “effect on induced colitis” value is “efficacious to reduce induced-colitis”.
